Measurements from patent US8658640B2, “JNK inhibitors for the treatment of endometriosis” (Merck Serono SA, priority 2005, dated 2014).

How the values were obtained:
[1] = cited from earlier work
[2] = system: human endometrial tissue organ cultures; assay: Proliferative organ culture model (MMP-3 Western blot); type: cell-based
Source text: Normal endometrial tissues were acquired just prior to ovulation by biopsy from a donor population (no history of endometriosis) and from women with surgically confirmed endometriosis. Informed consent was obtained prior to biopsy and the use of human tissues was approved by Vanderbilt University's Institutional Review Board and Committee for the Protection of Human Subjects.
Endometrial biopsies were dissected into small cubes (˜1×1 mm^3) and 8-10 pieces of tissue per treatment group were suspended in tissue culture inserts. Organ cultures were maintained a total of 72 hrs at 37° C. in DME/F-12 media with serum supplements. Tissue treatments included 17β-estradiol (E), E plus progesterone (P), or E plus medroxy progesterone acetate (MPA) with and without the JNK inhibitor. Cultures were maintained for 24 hours in E only until the initiation of experimental conditions. JNK inhibitor was used at a concentration of 5 or 15 μM and MPA was used at a concentration of 50, 100 or 250 μM.
Media was collected from organ cultures and secreted proteins quantified using the Coomassie Plus Protein Assay (Pierce) and 20 μg total protein subjected to 10% SDS-PAGE. Proteins were transferred to PVDF membrane and blocked in PBS with 10% non-fat milk and 0.05% Tween-20. […]

[3] = system: endometriotic lesions from human endometrial tissue; settings: earlier work using this model; positive control; cited from earlier work
endometriotic-like foci = assay: Rat model of experimentally induced endometriosis; type: in vivo; settings: for comparison; data not shown
Source text: The control group received the vehicle only.

In the case of `C#C[C@]1(O)CC[C@H]2[C@@H]3CCC4=Cc5oncc5C[C@]4(C)[C@H]3CC[C@@]21C` [Danazol], the “patients suffering from pain with improved symptoms” value [1] is given as 66-100%.
In the case of `CC(=O)O[C@]1(C(C)=O)CC[C@H]2[C@@H]3C[C@H](C)C4=CC(=O)CC[C@]4(C)[C@H]3CC[C@@]21C` [MPA, medroxy progesterone acetate], the “sensitivity to MPA treatment” value ([2]; endometrial cultures from endometriosis patients) is reported as “failed to regress” and the “sensitivity to MPA treatment” value ([2]; endometrial cultures from normal volunteers) is reported as “sensitive”.
For `CC(=O)[C@H]1CC[C@H]2[C@@H]3CCC4=CC(=O)CC[C@]4(C)[C@H]3CC[C@]12C` [progesterone], the disease progression [3] is given as “prevents disease progression”.
With antide the “regression of established endometriotic lesions” value (endometriotic-like foci) was “about 85%”.
